{
  "source": "patent US8293751B2",
  "about": "“1,2,3-trisubstituted aryl and heteroaryl derivatives as modulators of metabolism and the prophylaxis and treatment of disorders related thereto such as diabetes and hyperglycemia” (Arena Pharmaceuticals, Inc., priority 2003, dated 2012)",
  "key": {"RUP3": {"target": "T1, RUP3 (Homo sapiens, UniProt Q8TDV5)", "T1 construct": "seen in the listing only (N); seen in the listing only (C); expressed in transfected cells", "T1 sequence (Q8TDV5 with tags, fused parts or gaps)": "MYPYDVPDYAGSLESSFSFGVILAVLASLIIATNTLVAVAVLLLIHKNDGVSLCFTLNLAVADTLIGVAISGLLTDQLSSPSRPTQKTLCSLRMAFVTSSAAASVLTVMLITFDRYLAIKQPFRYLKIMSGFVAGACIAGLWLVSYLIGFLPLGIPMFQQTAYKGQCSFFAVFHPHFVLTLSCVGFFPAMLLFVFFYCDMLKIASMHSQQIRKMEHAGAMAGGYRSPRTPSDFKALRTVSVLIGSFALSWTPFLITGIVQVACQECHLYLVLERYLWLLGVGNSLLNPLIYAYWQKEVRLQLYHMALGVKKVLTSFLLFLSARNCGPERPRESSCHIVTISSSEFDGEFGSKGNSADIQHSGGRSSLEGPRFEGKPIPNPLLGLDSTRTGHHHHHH", "assay": "96-Well Cyclic AMP Membrane Assay for RUP3 (Membrane Cyclase Assay)", "type": "biochemical", "conditions": "RUP3 membranes, cAMP Flashplate", "description": "96-Well Cyclic AMP Membrane Assay for RUP3\nBinding Buffer—filter through […] Nalgene filter and keep in refrigerator. All buffers and membranes should be kept cold (in ice bucket) while performing assay. • 20 mM Hepes, pH7.4 • 1 mM MgCl2 • 100 mM NaCl • 2× Regeneration Buffer (make in binding buffer): • 20 mM Phosphocreatine (1.02 gm/200 ml binding buffer) • 20 units Creatine phosphokinase (4 mg/200 ml) • 20 uM GTP (make up 10.46 mg/ml in binding buffer and add 200 ul/200 ml) • 0.2 mM ATP (22.04 mg/200 ml) • […] IBMX (44.4 mg IBMX dissolved in 1 ml 100% DMSO first and then add the entire amount to 200 ml of buffer).\nRegeneration buffer can be aliquotted into 40-45 ml portions (in 50 ml sterile tubes) and kept frozen for up to 2 months. Simply put the tube in a beaker with room temperature water to thaw out the regeneration buffer on the day of the assay. […]\nIC50s or EC50s are done in triplicate. […] The membranes are kept in ice all the time, and a polytron (Brinkmann polytron, model #PT-3100) is used (setting 6-7, for 15-20 seconds) to obtain a homogeneous membrane suspension.) Protein concentration is determined by Bradford protein assay kit using instructions given in the kit, using the standard supplied with the kit as a reference. […]"}, "[1]": {"system": "db mice (C57BL/KsOlahsd-Leprdb, diabetic)", "assay": "Acute response of db mice to RUP3 agonist (blood glucose)", "type": "in vivo", "conditions": "male db mice; 60 mg/kg, oral gavage; FIG. 5B", "description": "B. […] Male db mice (C57BL/KsOlahsd-Leprdb, diabetic, Harlan) at age of 10 weeks were randomly grouped (n=6) to receive vehicle (oral gavage), Compound B70 (60 mg/kg, oral gavage), or Ex-4 (1 μg/kg, intraperitoneally). After compound administration, food was removed and blood glucose levels were determined at indicated times as shown in FIG. 5B. Reduction in blood glucose at each time point was expressed as percentage of original glucose levels, averaged from six animals for each group."}, "C57bl/6N mice": {"system": "C57bl/6N mice", "assay": "Oral glucose tolerance test (oGTT) in mice", "type": "in vivo", "conditions": "male C57bl/6N mice fasted 18 hours; p.o. 30 min before oral dextrose 5 g/kg; FIG. 5A", "description": "A. Oral Glucose Tolerance Test (oGTT) (FIG. 5A).\nMale C57bl/6N mice at age of 8 weeks were fasted for 18 hours and randomly grouped (n=11) to receive a RUP3 agonist (Compound B70) at indicated doses, or with control extendin-4 (ex-4, 1 μg/kg), a GLP-1 peptide analog known to stimulate glucose-dependent insulin secretion. Compound B70 was delivered orally via a gavage needle (p.o. volume at 100 μl). Control Ex-4 was delivered intraperitoneally. Thirty minutes after administration of test compound and control ex4, mice were administered orally with dextrose at 5 g/kg dose. Levels of blood glucose were determined at the indicated time points using Glucometer Elite XL (Bayer)."}},
  "note": "“Also recorded” adds a separate entry of the source.",
  "data": [
    {"smiles": "O=[N+]([O-])c1c(Nc2ccc(-n3cncn3)cc2)ncnc1N1CCC(Sc2ccccn2)CC1", "note": "[Compound B70, {5-Nitro-6-[4-(pyridin-2-ylsulfanyl)-piperidin-1-yl]-pyrimidin-4-yl}-(4-[1,2,4]triazol-1-yl-phenyl)-amine]", "values": [
      {"measurement": "IC50", "setting": "RUP3", "value": 129, "unit": "nM"},
      {"measurement": "blood glucose levels compared to vehicle control", "setting": "[1]", "value": "significantly reduces glucose levels compared to vehicle control"},
      {"measurement": "blood glucose after glucose challenge (oGTT)", "setting": "C57bl/6N mice", "value": "lowered blood glucose in a dose-dependent manner; also recorded: in a dose-dependent manner on the lowering of blood glucose after glucose challenge"}
    ]}
  ]
}
